Values joined by “and” are separate entries in the source; they are usually repeats but may differ in a detail not shown here. Identical values can stand only once. Like-named read-outs stand apart in the source and are kept apart here. Ends that are not written are not given here.
Experiments:
[1] = system: middle cerebral artery occlusion (MCAO) mouse model; assay: Middle cerebral artery occlusion (MCAO) mouse model, 1 hour ischemia and 24 hours reperfusion; type: in vivo, C57BL/6 mice; details: 1 or 5 mg/kg IV single dose
Protocol: The MABP and heart rate was recorded using a Visitech System blood pressure monitor.
All animals were subjected to 1.0 h ischemia followed by 24 h reperfusion. […] Vehicle control received saline solution.
This study involved a transient model of ischemia. […] After the nylon suture was in place for 1 hour, it was pulled back into the ECA and the incision closed.
. The brains were transcardially perfused with 4 degree C., 10% phosphate-buffered saline (PBS). The brains were removed and chilled for 15 minutes at −20 degree C. before being placed in a Rodent Brain Matrix. Coronal sections (1-mm thickness) were prepared and subjected to 2% triphenyltetrazolium chloride (TTC) staining at 37 degree C. Seven serial one-mm thick coronal sections through the rostral to caudal extent of the infarction were obtained from each brain, beginning two-mm from the frontal pole. The TTC stained sections were placed in 10% neutral buffered formalin and kept in darkness at 4° C. for at least 24 hours. The infarct area in each section was determined with a computer-assisted image analysis system, consisting of a Power Macintosh computer equipped with a Quick Capture frame grabber card, Hitachi CCD camera mounted on an Olympus microscope and camera stand. NIH Image Analysis Software, v. 1.55 was used. The images were captured and the total area of damage determined over the seven sections.

[2] = system: SH-SY5Y cells; assay: Cell culture model of Parkinson's disease: SH-SY5Y cell viability (MTT) with or without salsolinol; type: cell-based, human; details: 24 h
Protocol: SH-SY5Y cells were purchased from American Type Culture Collection (Manassas, Va.) and cultured in a complete media containing minimum essential media, Hams F-12 media and Hanks Balanced Salt Solution Gibco-BRL) in a ratio of 2:1:1. The media also contained 10% fetal bovine serum along with penicillin (50 U/ml) and streptomycin ([…]). The cells were cultured in flasks and kept in a humidified incubator containing 5% CO2 in air at 37° C. The media was changed every 2-3 days.
Prior to manipulation, cultures were assigned to different treatment groups based on a randomized block design.
For cell viability experiments, SH-SY5Y cells (0.5×10^5/well) were cultured in a 96-well cell culture plate and treated with (±) SAL (Sigma, St. Louis, Mo.) alone or along with different concentrations of (GM6) (Genervon), with or without Wortmannin (WRT) (Sigma, St. Louis, Mo.), a phosphatidylinositol-3-kinase (PI-3 kinase) inhibitor, for 24 h. Cell viability was determined by Thiazolyl blue (MTT) assay.

[3] = GM6 levels in brain by competitive ELISA after IV injection (blood brain barrier penetration); type: in vivo, C57BL/6 mice; details: for increase in GM6 in the brain vs vehicle: 4 hours; for level at time molar at 4 h: male, C57BL/6, mouse, WT mice, brain collected 4 hours later, read-out: ELISA MNTF (μM) in the brain
Protocol: C57BL6 mice were injected with GM6 at the indicated doses and examined for GM6 in the brain. Half of the brain was taken for immunocytochemical analysis for GM6, the other half (brain) was frozen for ELISA analysis.
Animals were acclimated for 1 week prior to experimentation. The animals were bolus i.v. dosed via tail vein with vehicle or GM6 at 0.2 or 2 mg/kg. […] Vehicle control received saline solution.
To measure GM6 levels in samples using the competitive ELISA kit. Affinity purified rabbit anti-6Mer was coated on ELISA plate at 10 ug/ml in coating buffer. 6Mer-biotin was used at 1 uM (final dilution) in the assay. The known concentrations of GM6 (competitor) were used as reference standards starting from 80 uM and titrating 2-fold down 0.625 uM in the test for establishing standard curve. Concentration of tested samples was estimated from their OD450 observation based on the standard curve.
The brain tissue was prepared in cell lysis buffer containing 100 mM Tris HCl, pH 7.0, containing 2% BSA, 1 M NaCl, 4 mM EDTA, 2% Triton X-100, 0.1% sodium azide and protease inhibitors (Complete™, Mini, Boehringer Mannheim). Homogenates were prepared in 10 volumes of buffer to tissue wet weight. The homogenates were centrifuged for 30 minutes at 14,000×g. The resulting supernatant was used for ELISA with the appropriate volume adjustment.
For the assay, the anti-6Mer pAb was diluted to 10 ug/ml in ELISA coating buffer. The 96-well micro-titer plates were coated with 100 ul/well of the diluted pAb. The plates were covered and kept refrigerated overnight. Next day, the plates were blocked with 200 ul/well TBS with 3% BSA, and kept at RT for 60 min. The plates were washed 3× with TBST (TBS+0.05% Tween 20). For each plate, 10 ml 1 uM 6Mer-biotin and make 1 ml standard mix was prepared: 1 uM 6Mer-biotin with 80 uM 6Mer. For each plate, lanes 1 and 2 were used for the standard curve. 1 uM 6Mer-biotin (100 μl) was added to all wells except A1 and A2 and 200 ul/well of standard mix was added to A1 and A2. A serial 2-fold dilution from wells A1 and A2 down to wells H1 and H2 was performed by taking out 100 ul sample from each well and mix it with next well—pipetting up and down at least 8 times. The extra 100 ul at the final wells (H1 and H2) was discarded. Test samples (brain homogenate) was diluted in Ab dilution buffer and mixed at a 1:50 with the 1 uM 6Mer-biotin. The plate was mixed on a shaker at 400 rpm for 2 hours at RT. The samples were washed 6× with TBST. Streptavidin-HRP (10 ml per plate) solution was prepared by diluting Streptavidin-HRP to 1:2000 in Ab dilution buffer. The plate was mixed on the shaker for another 1 hour at RT. The samples were wash 8× with TBST. […] The reaction was stopped with 50 ul 1M HCl. and read OD450 immediately.

[4] = system: permanent middle cerebral artery occlusion (MCAO) rat model; assay: Permanent middle cerebral artery occlusion (MCAO) rat model, 28 days; details: 2.5, 10 or 20 mg/kg IV

**Q.** For FSRYAR [GM6, FSRYAR], which “changes in HR, BP, pO2, pCO2, or pH” value [1] is on record?
**A.** Its value is “no changes”.

**Q.** What about the “Viability (% Cells) Mean ± SD” value ([2]; GM6 0.1 mg/ml, no salsolinol, MTT) of the same substance?
**A.** The value was 101.2 ± 7.260%.

**Q.** What about the “Viability (% Cells) Mean ± SD” value ([2]; GM6 1 mg/ml, no salsolinol, MTT) of the same substance?
**A.** Its value is 108.0 ± 8.249%.

**Q.** And the “Viability (% Cells) Mean ± SD” value ([2]; GM6 10 mg/ml + WRT (10 μM), no salsolinol)?
**A.** The value was 93.81 ± 9.246%.

**Q.** And the “Viability (% Cells) Mean ± SD” value ([2]; GM6 10 mg/ml, no salsolinol, MTT)?
**A.** Its value is 119.9 ± 14.01%.

**Q.** What about the “Viability (% Cells) Mean ± SD” value ([2]; Salsolinol 100 μM + GM6 0.1 mg/ml) of the same substance?
**A.** The value was 66% and 65.85 ± 10.80%.

**Q.** And the “Viability (% Cells) Mean ± SD” value ([2]; Salsolinol 100 μM + GM6 1 mg/ml)?
**A.** Its value is 85% and 85.19 ± 10.18%.

**Q.** What about the “Viability (% Cells) Mean ± SD” value ([2]; Salsolinol 100 μM + GM6 10 mg/ml + WRT (10 μM)) of the same substance?
**A.** Its value is 41.35 ± 10.79%.

**Q.** What about the “Viability (% Cells) Mean ± SD” value ([2]; Salsolinol 100 μM + GM6 10 mg/ml) of the same substance?
**A.** Its value is 95% and 95.57 ± 8.328%.

**Q.** And the “increase in GM6 in the brain vs vehicle” value ([3]; 0.2 mg/kg IV bolus)?
**A.** The value was 400%.

**Q.** What about the “increase in GM6 in the brain vs vehicle” value ([3]; 2 mg/kg IV bolus) of the same substance?
**A.** The value was 3000%.

**Q.** And the level at time molar at 4 h ([3]; 0.2 mg/kg IV bolus)?
**A.** The level at time molar at 4 h was 1.76 µM.

**Q.** What about the level at time molar at 4 h ([3]; 2 mg/kg IV bolus) of the same substance?
**A.** The level at time molar at 4 h was 12.9 µM.

**Q.** And the “changes in HR, BP, pO2, pCO2, or pH” value [4]?
**A.** The value was “no changes”.

— US8673852B2, “Methods of treating neuronal disorders using MNTF peptides and analogs thereof” (Genervon Biopharmaceuticals, LLC, priority 2006, dated 2014)
